{
  "source": "paper PMC3561933",
  "about": "(Bioorganic & medicinal chemistry letters, 2012)",
  "key": {"HIV-1 Y181C variant [1]": {"test_system": "HIV-1 Y181C variant", "conditions": "ref 7b, cited from earlier work"}, "HIV-1 Y181C variant [2]": {"test_system": "HIV-1 Y181C variant", "format": "cell-based", "conditions": "relative to 1f"}, "[3]": {"conditions": "observed; cited from earlier work"}, "[4]": {"test_system": "HIV-1 strains with Tyr181Cys (Y181C) mutation", "conditions": "cited from earlier work"}, "[5]": {"test_system": "HIV-1 Y181C combined with Lys103Asn", "conditions": "cited from earlier work"}},
  "data": [
    {"smiles": "N#Cc1ccc(Nc2ncc(Cc3c(F)cccc3F)o2)cc1", "note": "[Compound 1a]", "values": [
      {"measurement": "activity towards a Y181C-containing strain", "setting": "HIV-1 Y181C variant [1]; earlier work", "value": "no activity"}
    ]},
    {"smiles": "CCc1cc(F)c(Cc2cnc(Nc3ccc(C#N)c(Cl)c3)o2)c(F)c1", "note": "[Compound 1e]", "values": [
      {"measurement": "gain in WT potency over 1b (factor)", "setting": "HIV-1 IIIB (wild-type); relative to 1b", "value": 5}
    ]},
    {"smiles": "N#Cc1ccc(Nc2ncc(Cc3c(F)cc(C4CC4)cc3F)o2)cc1Cl", "note": "[Compound 1g]", "values": [
      {"measurement": "factor less active against WT virus than 1f", "setting": "HIV-1 IIIB (wild-type); relative to 1f", "value": 5},
      {"measurement": "fold less active towards Y181C variant than 1f", "setting": "HIV-1 Y181C variant [2]", "value": 200, "unit": "fold"}
    ]},
    {"smiles": "Fc1cccc(F)c1Cc1cnc(Nc2ccc(Oc3cccnc3)c(Cl)c2)o1", "note": "[Compound 2a]", "values": [
      {"measurement": "EC50", "setting": "HIV-1 Y181C variant [1]; read-out: EC50 for the Y181C variant, earlier work", "value": 3000, "unit": "nM"}
    ]},
    {"smiles": "CCc1cc(F)c(Cc2cnc(Nc3ccc(Oc4cccnc4)c(Cl)c3)o2)c(F)c1", "note": "[Compound 2b]", "values": [
      {"measurement": "fold activity boost against WT virus in comparison to 2a", "setting": "HIV-1 IIIB (wild-type); relative to 2a", "value": 5, "unit": "fold"}
    ]},
    {"smiles": "c1ccc(C2CC2)cc1", "note": "[cyclopropylbenzene]", "values": [
      {"measurement": "octanol/water log P", "setting": "[3]", "value": 3.3}
    ]},
    {"smiles": "CC(C)Nc1cccnc1N1CCN(C(=O)c2cc3cc(NS(C)(=O)=O)ccc3[nH]2)CC1", "note": "[delavirdine]", "values": [
      {"measurement": "activity towards HIV-1 strains with Y181C mutation", "setting": "[4]", "value": "inactive"}
    ]},
    {"smiles": "O=C1Nc2ccc(Cl)cc2[C@@](C#CC2CC2)(C(F)(F)F)O1", "note": "[efavirenz]", "values": [
      {"measurement": "activity towards Y181C combined with Lys103Asn", "setting": "[5]", "value": "debilitated"}
    ]},
    {"smiles": "CC(C)c1ccccc1", "note": "[isopropylbenzene]", "values": [
      {"measurement": "octanol/water log P", "setting": "[3]", "value": 3.7}
    ]},
    {"smiles": "Cc1ccnc2c1NC(=O)c1cccnc1N2C1CC1", "note": "[nevirapine]", "values": [
      {"measurement": "activity towards HIV-1 strains with Y181C mutation", "setting": "[4]", "value": "inactive"}
    ]}
  ]
}
